Measured values from article PMC12113356, “Novel Anti-MRSA Peptide from Mangrove-Derived Virgibacillus chiguensis FN33 Supported by Genomics and Molecular Dynamics” (Marine Drugs, 2025).
≈ marks a conversion by molar mass, not a printed value. Like-named read-outs stand apart in the source and are kept apart here. Peptide text beside a SMILES is read from it.

Tests used:
S. aureus TISTR 517 [1] = test: Broth microdilution MIC/MBC (CLSI); format: cell-based, Staphylococcus aureus; conditions: broth microdilution, CAMHB, 37 °C 24 h, triplicate
Procedure: The broth microdilution method was performed following the guidelines of the Clinical and Laboratory Standards Institute (CLSI). Test strains including S. aureus TISTR 517 and MRSA strains 142, 1096, and 2468 were cultured on MH agar at 37 °C for 18 h. A single colony from each strain was suspended in 0.85% NaCl until it reached a turbidity of 0.1 OD at 625 nm (1 × 10^8 CFU/mL). The bacterial cells were then diluted to 5 × 10^6 CFU/mL using cation-adjusted Mueller–Hinton broth (CAMHB). Ten microliters of the cell suspension were added to each well of a 96-well plate to make the total volume in each well 100 µL. The AMP was added to achieve final concentrations ranging from 0.125 to 64 µg/mL. Vancomycin and cefoxitin were used as positive controls, while antibiotic-free samples were used as negative controls. The plate was incubated at 37 °C for 24 h. Each experiment was performed in triplicate. The MIC was determined as the lowest concentration that inhibited visible bacterial growth. For the MBC, 100 µL from each dilution was spread on MH agar and incubated at 37 °C for 24 h. The MBC was the lowest concentration at which no bacterial colonies appeared on the agar plates.

MRSA strain 2468 [2] = test: Scanning electron microscopy of treated cells; format: cell-based, Staphylococcus aureus; conditions: 1× MIC, 16 h / 18 h (figure legend), 30,000× magnification
From the text: (§1) SEM was used to examine morphological alterations in the bacterial cells. […] This appearance reflected their natural cellular structure.
(§2) Figure 5 SEM images captured at 30,000× magnification. […] The non-treatment condition served as a negative control.

S. aureus TISTR 517 [3] = test: Scanning electron microscopy of treated cells; format: cell-based, Staphylococcus aureus; conditions: 1× MIC, 16 h / 18 h (figure legend), 30,000× magnification
From the text: as §1, §2

MRSA strain 2468 [4] = test: Thermal stability (activity retention by agar well diffusion); format: physicochemical, Staphylococcus aureus; conditions: for Antibacterial Activity Retention of FN33 AMP (%) Against MRSA Strain 2468: 32 µg/mL in water, agar well diffusion read-out, % of untreated sample, mean ± SD, n = 3
Procedure: (§3) The AMP solution was prepared in sterile purified water and adjusted to a final concentration of 32 µg/mL. To determine thermal stability, the AMP was exposed to temperatures of 30, 40, 60, 80, and 100 °C, as well as to autoclaving at 121 °C and 15 psi for 15 and 30 min. The susceptibility of the AMP to enzymatic degradation was examined by treating it with proteinase K, trypsin, and α-chymotrypsin (each at 1 mg/mL, Sigma-Aldrich, Warren, MI, USA), representing different proteolytic mechanisms. The AMP’s compatibility with surfactants was assessed by incubating it with 1% SDS, 1% CTAB, and 1% Triton X-100 (AppliChem GmbH, Darmstadt, Germany). Additionally, the effect of pH variations on AMP integrity was tested by adjusting the solution to pH 1, 4, 8, 10, and 14. The pH was neutralized to the original pH after incubation before conducting antibacterial activity tests. […] Stability data were expressed as residual activity percentages relative to the untreated sample (mean ± SD), and statistical significance was evaluated using two-way ANOVA and Tukey’s post hoc test, with a p-value < 0.05 considered significant.

proteinase K = biological target: T1, proteinase K (Parengyodontium album, UniProt P06873); test: Stability to protease digestion (activity retention); format: in vitro ADME; conditions: 32 µg/mL, proteinase K 1 mg/mL, agar well diffusion read-out vs MRSA strain 2468, % of untreated sample, mean ± SD, n = 3
T1 construct: purchased Sigma-Aldrich
Procedure: as §3

α-chymotrypsin = biological target: T2, α-chymotrypsin (Bos taurus, UniProt P00766); test: as above; format: in vitro ADME; conditions: 32 µg/mL, α-chymotrypsin 1 mg/mL, agar well diffusion read-out vs MRSA strain 2468, % of untreated sample, mean ± SD, n = 3
T2 construct: purchased Sigma-Aldrich
Procedure: as §3

trypsin = format: in vitro ADME; conditions: 32 µg/mL, trypsin 1 mg/mL, agar well diffusion read-out vs MRSA strain 2468, % of untreated sample, mean ± SD, n = 3
Procedure: as §3

MRSA strain 2468 [5] = test: Compatibility with surfactants (activity retention by agar well diffusion); format: physicochemical, Staphylococcus aureus; conditions: 32 µg/mL, agar well diffusion read-out, % of untreated sample, mean ± SD, n = 3
Procedure: as §3

[6] = DPPH radical-scavenging assay; conditions: 0.1 mM DPPH, 25 °C, 30 min in darkness, absorbance 517 nm; mean ± SD, n = 3
Procedure: A 200 μL sample or ascorbic acid (Gammaco Ltd., Bangkok, Thailand) was added to 2 mL of 0.1 mM DPPH solution (Merck Ltd., Bangkok, Thailand) and incubated at 25 °C in darkness for 30 min. The DPPH color change from purple to pale yellow was observed, and the absorbance at 517 nm was measured using a UV–visible spectrophotometer.

T1 sequence (P06873 106-384): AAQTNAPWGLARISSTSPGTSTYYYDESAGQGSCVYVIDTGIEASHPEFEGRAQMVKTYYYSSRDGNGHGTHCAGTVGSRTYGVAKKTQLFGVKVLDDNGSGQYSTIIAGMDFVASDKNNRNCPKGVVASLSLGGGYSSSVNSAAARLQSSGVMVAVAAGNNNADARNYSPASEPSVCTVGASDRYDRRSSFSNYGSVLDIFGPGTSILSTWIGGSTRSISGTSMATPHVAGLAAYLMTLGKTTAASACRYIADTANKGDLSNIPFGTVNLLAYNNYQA

## CC(C)C[C@H](NC(=O)[C@H](CC(=O)O)NC(=O)[C@H](CS)NC(=O)[C@H](Cc1c[nH]cn1)NC(=O)[C@H](CS)NC(=O)[C@@H]1CCCN1C(=O)[C@@H](NC(=O)[C@H](CC(C)C)NC(=O)[C@H](CS)NC(=O)CNC(=O)[C@H](Cc1c[nH]c2ccccc12)NC(=O)[C@@H](NC(=O)[C@H](CC(=O)O)NC(=O)[C@@H](NC(=O)CNC(=O)[C@H](CS)NC(=O)CNC(=O)CNC(=O)[C@@H](N)CCC(=O)O)C(C)C)[C@@H](C)O)[C@@H](C)O)C(=O)N[C@@H](Cc1ccccc1)C(=O)N[C@@H](CS)C(=O)N[C@H](C(=O)N[C@H](C(=O)O)[C@@H](C)O)[C@@H](C)O [FN33 AMP] (H-EGGCGVDTWGCLTPCHCDLFCTT-OH)
S. aureus TISTR 517 [1]
  MIC: 16 µg/mL (≈ 6.61 µM)
MRSA strain 2468 [2]
  morphological changes under SEM: greater number of completely lysed cells
S. aureus TISTR 517 [3]
  morphological changes under SEM: dented and rough surface with fewer lysed cells
MRSA strain 2468 [4]; 30 °C, 1 h
  Antibacterial Activity Retention of FN33 AMP (%) Against MRSA Strain 2468: 100.00 ± 0.66%
MRSA strain 2468 [4]; 30 °C, 6 h
  Antibacterial Activity Retention of FN33 AMP (%) Against MRSA Strain 2468: 100.00 ± 0.17%
MRSA strain 2468 [4]; 30 °C, 12 h
  Antibacterial Activity Retention of FN33 AMP (%) Against MRSA Strain 2468: 99.79 ± 0.47%
MRSA strain 2468 [4]; 40 °C, 1 h
  Antibacterial Activity Retention of FN33 AMP (%) Against MRSA Strain 2468: 100.08 ± 0.48%
MRSA strain 2468 [4]; 40 °C, 6 h
  Antibacterial Activity Retention of FN33 AMP (%) Against MRSA Strain 2468: 100.02 ± 0.35%
MRSA strain 2468 [4]; 40 °C, 12 h
  Antibacterial Activity Retention of FN33 AMP (%) Against MRSA Strain 2468: 100.23 ± 0.28%
MRSA strain 2468 [4]; 60 °C, 1 h
  Antibacterial Activity Retention of FN33 AMP (%) Against MRSA Strain 2468: 98.58 ± 1.74%
MRSA strain 2468 [4]; 60 °C, 6 h
  Antibacterial Activity Retention of FN33 AMP (%) Against MRSA Strain 2468: 93.53 ± 1.27 *^,† %
MRSA strain 2468 [4]; 60 °C, 12 h
  Antibacterial Activity Retention of FN33 AMP (%) Against MRSA Strain 2468: 86.98 ± 0.79 *^,† %
MRSA strain 2468 [4]; 80 °C, 1 h
  Antibacterial Activity Retention of FN33 AMP (%) Against MRSA Strain 2468: 95.17 ± 0.43 %
MRSA strain 2468 [4]; 80 °C, 6 h
  Antibacterial Activity Retention of FN33 AMP (%) Against MRSA Strain 2468: 90.91 ± 0.26 *^,† %
MRSA strain 2468 [4]; 80 °C, 12 h
  Antibacterial Activity Retention of FN33 AMP (%) Against MRSA Strain 2468: 82.46 ± 0.55 *^,† %
MRSA strain 2468 [4]; 100 °C, 1 h
  Antibacterial Activity Retention of FN33 AMP (%) Against MRSA Strain 2468: 90.83 ± 0.67 %
MRSA strain 2468 [4]; 100 °C, 6 h
  Antibacterial Activity Retention of FN33 AMP (%) Against MRSA Strain 2468: 83.38 ± 0.83 *^,† %
MRSA strain 2468 [4]; 100 °C, 12 h
  Antibacterial Activity Retention of FN33 AMP (%) Against MRSA Strain 2468: 79.97 ± 0.06 *^,† %
MRSA strain 2468 [4]; autoclave 121 °C and 15 psi, 15 min
  Antibacterial Activity Retention of FN33 AMP (%) Against MRSA Strain 2468: 72.82 ± 0.53 %
MRSA strain 2468 [4]; autoclave 121 °C and 15 psi, 30 min
  Antibacterial Activity Retention of FN33 AMP (%) Against MRSA Strain 2468: 65.87 ± 0.82 *^,† %
MRSA strain 2468 [4]; 60 °C, 80 °C and 100 °C, over 12 h
  activity lost due to elevated temperatures: up to 20%
Proteinase K; 1 h
  Antibacterial Activity Retention of FN33 AMP (%) Against MRSA Strain 2468: 0.00 ± 0.00 %
Proteinase K; 6 h
  Antibacterial Activity Retention of FN33 AMP (%) Against MRSA Strain 2468: 0.00 ± 0.00 %
Proteinase K; 12 h
  Antibacterial Activity Retention of FN33 AMP (%) Against MRSA Strain 2468: 0.00 ± 0.00 %
α-chymotrypsin; 1 h
  Antibacterial Activity Retention of FN33 AMP (%) Against MRSA Strain 2468: 0.00 ± 0.00 %
α-chymotrypsin; 6 h
  Antibacterial Activity Retention of FN33 AMP (%) Against MRSA Strain 2468: 0.00 ± 0.00 %
α-chymotrypsin; 12 h
  Antibacterial Activity Retention of FN33 AMP (%) Against MRSA Strain 2468: 0.00 ± 0.00 %
trypsin; 1 h
  Antibacterial Activity Retention of FN33 AMP (%) Against MRSA Strain 2468: 99.60 ± 0.6%
trypsin; 6 h
  Antibacterial Activity Retention of FN33 AMP (%) Against MRSA Strain 2468: 98.82 ± 0.67%
trypsin; 12 h
  Antibacterial Activity Retention of FN33 AMP (%) Against MRSA Strain 2468: 99.04 ± 1.02%
MRSA strain 2468 [5]; with CTAB 1% w/v, 1 h
  Antibacterial Activity Retention of FN33 AMP (%) Against MRSA Strain 2468: 93.19 ± 0.52 %
MRSA strain 2468 [5]; with CTAB 1% w/v, 6 h
  Antibacterial Activity Retention of FN33 AMP (%) Against MRSA Strain 2468: 93.17 ± 0.48 %
MRSA strain 2468 [5]; with CTAB 1% w/v, 12 h
  Antibacterial Activity Retention of FN33 AMP (%) Against MRSA Strain 2468: 92.51 ± 0.69 *^,† %
MRSA strain 2468 [5]; with SDS 1% w/v, 1 h
  Antibacterial Activity Retention of FN33 AMP (%) Against MRSA Strain 2468: 117.08 ± 0.78 %
MRSA strain 2468 [5]; with SDS 1% w/v, 6 h
  Antibacterial Activity Retention of FN33 AMP (%) Against MRSA Strain 2468: 117.39 ± 0.96 %
MRSA strain 2468 [5]; with SDS 1% w/v, 12 h
  Antibacterial Activity Retention of FN33 AMP (%) Against MRSA Strain 2468: 115.95 ± 0.57 %
MRSA strain 2468 [5]; with Triton X-100 1% w/v, 1 h
  Antibacterial Activity Retention of FN33 AMP (%) Against MRSA Strain 2468: 81.23 ± 1.04 %
MRSA strain 2468 [5]; with Triton X-100 1% w/v, 6 h
  Antibacterial Activity Retention of FN33 AMP (%) Against MRSA Strain 2468: 81.69 ± 0.38 %
MRSA strain 2468 [5]; with Triton X-100 1% w/v, 12 h
  Antibacterial Activity Retention of FN33 AMP (%) Against MRSA Strain 2468: 81.30 ± 0.72 %
[6]
  IC50 (DPPH radical scavenging): 11.66 ± 2.87 µg/mL (≈ 4.82 µM)
